Test results from patent US20250375492A1, “MONASCUS PILOSUS STRAIN, COMPOSITION FOR PREVENTING OR TREATING NONALCOHOLIC FATTY LIVER DISEASE AND USE OF SAID MONASCUS PILOSUS” (SUNWAY BIOTECH CO., LTD., priority 2024, published 2025).

Test system: gut microbiota of nonalcoholic fatty liver mice
Assay: Gut microbiota analysis (full-length 16S sequencing) in nonalcoholic fatty liver mice
Format: in vivo, C57BL/6J mice
Conditions: compared with the HFD group; L008, H008 and Msol groups; FIG. 9
Experimental: The experiment used 7-week-old male C57BL/6J strain mice purchased from the National Laboratory Animal Center. The initial body weight was about 23 g, with 12 mice per group. They were housed at 60% relative humidity, room temperature 25±1° C., with a 12-hour light cycle (8:00-20:00). The experiment lasted for 22 weeks, during which food and water were provided ad libitum. Body weight, food intake, and water consumption were measured weekly.
Embodiment 4 uses a high-fat feed to induce a nonalcoholic fatty liver animal model. The animal experiment lasted for 22 weeks. Animal test feed was prepared according to the formula of Research Diets (New Brunswick, NJ, USA) for D12450B and D12492. The grouping is as follows: • i. […]
Total genomic DNA was extracted from samples (QIAamp PowerFecal DNA, Qiagen). DNA concentration was determined using a Qubit 4.0 fluorometer (Thermo Scientific) and adjusted to 1 ng/μL. […] PCR reactions were performed using KAPA HiFi HotStart ReadyMix (Roche): 95° C., 3 minutes; 20-27 cycles (sample-dependent): 95° C., 30 seconds, 57° C., 30 seconds, 72° C., 60 seconds; 72° C. for 5 minutes, and final storage at 4° C. PCR products were monitored on 1% agarose gel. […]
Sample data were demultiplexed from the raw data based on Barcode sequences and PCR amplification primer sequences. […] The sequences with primers removed were used as QIIME2 DADA2 Input Reads. […]

Monascinol [Msol]
microbial population (abundance) of Blautia in the intestine: increase
microbial population (abundance) of Intestinimonas in the intestine: increase
